For series [1], the target named is T1, human β3 adrenergic receptor (Homo sapiens, UniProt P13945).
T1 construct: Full length β3 AR clones (402 amino acids) containing the last 6 amino acids of hβ3— AR are prepared; expressed in transfected cells; host or cells: CHO cells
The experiment in a line: cAMP accumulation (SPA) in CHO cells transfected with human β3 adrenergic receptor. The settings on record: for EC50: CHO cells expressing human β3-AR, cAMP, 30 min incubation, 10^−9 M to 10^−5 M, read-out: beta-3 EC50; for beta-3 (IA) maximal response relative to isoproterenol: IA = % activity compound / % activity isoproterenol at 10^−5 M, CHO human β3 cells. The format is cell-based. A digest of the protocol: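 CHO cells expressing human β3-AR (70–110 fmol/mg protein) treated with compound at 10^−9 to 10^−5 M in DMEM with 250 μM IBMX and 1 mM ascorbic acid, 30 min, 37 °C. cAMP measured by SPA; EC50 derived, and intrinsic activity expressed relative to the maximal response of 10^−5 M isoproterenol.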

Series [2] concerns the target T2, human β2-adrenergic receptor (Homo sapiens, UniProt P07550).
T2 construct: expressed in transfected cells; host or cells: CHO cells
As to the kind of experiment: cAMP accumulation (SPA) in CHO cells transfected with human β2 adrenergic receptor. The format is cell-based. The note with it: for EC50: CHO cells transfected with human β2-AR, cAMP, 15 min incubation, 10^−8 to 10^−4 M, read-out: beta-2 EC50; for beta-2 (IA) maximal response relative to isoproterenol: IA = % activity compound / % activity isoproterenol at 10^−5 M, CHO human β2 cells. In outline: (§1)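 CHO cell clones expressing 70–110 fmol/mg protein of receptor were pre-incubated 30 min at 37 °C, then treated 15 min at 37 °C with compound (10^−8 to 10^−4 M) in DMEM with 250 μM IBMX and 1 mM ascorbic acid. cAMP was read by SPA after acid stop. EC50 and IA were expressed relative to maximal 10^−5 M isoproterenol response.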
Background: cAMP levels reflect the balance of adenylyl cyclase and phosphodiesterase activity.

For series [3], the target named is T3, human β1-adrenergic receptor (Homo sapiens, UniProt P08588).
T3 construct: expressed in transfected cells; host or cells: CHO cells
As to the kind of experiment: cAMP accumulation (SPA) in CHO cells transfected with human β1 adrenergic receptor. The format is cell-based. The settings on record: for EC50: CHO cells transfected with human β1-AR, cAMP, 15 min incubation, 10^−8 to 10^−4 M, read-out: beta-1 EC50; for beta-1 (IA) maximal response relative to isoproterenol: IA = % activity compound / % activity isoproterenol at 10^−5 M, CHO human β1 cells. In outline: as §1

For orientation: melting point means the temperature of the solid-liquid transition. As usually defined, the EC50 is the concentration needed to bring the measured effect to its halfway point.

Molecules are shown by their SMILES. Where a name gives a salt, the structure may show the parent alone.

T3 sequence (P08588 whole entry): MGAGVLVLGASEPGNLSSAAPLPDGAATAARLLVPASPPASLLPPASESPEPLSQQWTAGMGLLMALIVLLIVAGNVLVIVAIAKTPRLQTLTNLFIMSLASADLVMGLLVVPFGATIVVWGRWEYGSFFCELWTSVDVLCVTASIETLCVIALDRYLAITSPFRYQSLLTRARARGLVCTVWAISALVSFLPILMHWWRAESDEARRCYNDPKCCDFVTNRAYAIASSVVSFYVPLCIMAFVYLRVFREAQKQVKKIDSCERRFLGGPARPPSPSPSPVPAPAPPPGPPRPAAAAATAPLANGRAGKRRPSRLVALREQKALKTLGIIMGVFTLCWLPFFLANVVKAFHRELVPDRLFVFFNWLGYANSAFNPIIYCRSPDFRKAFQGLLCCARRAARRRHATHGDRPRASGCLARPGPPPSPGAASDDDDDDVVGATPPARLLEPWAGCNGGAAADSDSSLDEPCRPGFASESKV
T1 sequence (P13945 whole entry): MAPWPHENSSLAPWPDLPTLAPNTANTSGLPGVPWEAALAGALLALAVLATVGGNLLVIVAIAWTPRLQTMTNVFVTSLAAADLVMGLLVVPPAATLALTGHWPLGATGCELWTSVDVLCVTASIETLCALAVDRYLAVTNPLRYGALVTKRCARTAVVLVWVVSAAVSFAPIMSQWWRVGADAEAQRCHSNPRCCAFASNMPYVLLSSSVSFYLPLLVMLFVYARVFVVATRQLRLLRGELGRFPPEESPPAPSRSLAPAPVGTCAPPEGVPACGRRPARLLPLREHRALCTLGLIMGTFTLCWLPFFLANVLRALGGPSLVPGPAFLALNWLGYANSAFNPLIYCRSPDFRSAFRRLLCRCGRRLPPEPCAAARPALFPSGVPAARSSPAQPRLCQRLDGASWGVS
T2 sequence (P07550 whole entry): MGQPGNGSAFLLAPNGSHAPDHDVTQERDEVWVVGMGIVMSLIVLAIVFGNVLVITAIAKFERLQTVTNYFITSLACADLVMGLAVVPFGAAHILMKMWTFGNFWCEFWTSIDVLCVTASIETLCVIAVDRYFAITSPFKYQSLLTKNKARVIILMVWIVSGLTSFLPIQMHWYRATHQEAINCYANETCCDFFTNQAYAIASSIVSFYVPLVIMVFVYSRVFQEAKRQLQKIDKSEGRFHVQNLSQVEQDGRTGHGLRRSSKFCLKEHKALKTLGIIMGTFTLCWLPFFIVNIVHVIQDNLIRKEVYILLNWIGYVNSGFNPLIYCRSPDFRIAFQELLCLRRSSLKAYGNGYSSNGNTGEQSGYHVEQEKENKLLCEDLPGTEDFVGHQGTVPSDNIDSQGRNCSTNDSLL

Compound `CS(=O)(=O)Nc1cc([C@@H](O)CNC2CCN(c3ccc(S(=O)(=O)NCC(=O)O)cc3)CC2)ccc1O` (as salt: salt) [Example 53, 2-{[(4-{4-[((2R)-2-hydroxy-2-{4-hydroxy-3-[(methylsulfonyl)amino]phenyl}ethyl)amino]-1-piperidinyl}phenyl)sulfonyl]amino}acetic Acid] registered a melting point of 170 to 172 °C.
For the compound `CS(=O)(=O)Nc1cc([C@@H](O)CNC2CCN(c3ccc(S(=O)(=O)N(CC(=O)O)CC(=O)O)cc3)CC2)ccc1O` (as salt: salt) [Example 55, 2-((Carboxymethyl)[(4-{4-[((2R)-2-hydroxy-2-{4-hydroxy-3-[(methylsulfonyl)amino]phenyl)ethyl)amino]-1-piperidinyl}phenyl)sulfonyl]amino}acetic Acid], the melting point was 163 to 166 °C.
`COC(=O)N(CC(=O)O)S(=O)(=O)c1ccc(N2CCC(NC[C@H](O)c3ccc(O)c(NS(C)(=O)=O)c3)CC2)cc1` (as salt: salt) [Example 60, [[(4-{4-[((2R)-2-Hydroxy-2-{4-hydroxy-3-[(methylsulfonyl)amino]phenyl}-ethyl)amino]piperidin-1-yl}phenyl)sulfonyl](methoxycarbonyl)amino]acetic Acid] displayed a melting point of 60 °C.
The compound `CS(=O)(=O)Nc1cc([C@@H](O)CNC2CCN(c3ccc(S(=O)(=O)N(CC(=O)O)Cc4cc(F)ccc4F)cc3)CC2)ccc1O` (as salt: salt) [Example 63, 2-{(2,5-Difluorobenzyl)[(4-{4-[((2R)-2-hydroxy-2-{4-hydroxy-3-[(methylsulfonyl)-amino]phenyl}ethyl)amino]-1-piperidinyl}phenyl)sulfonyl]amino}acetic acid] showed a melting point of 80 to 82 °C.
`CS(=O)(=O)Nc1cc([C@@H](O)CNC2CCN(c3ccc(S(=O)(=O)N4CCN(CC(=O)O)CC4)cc3)CC2)ccc1O` (as salt: sodium) [Example 65]: the melting point is 131 °C (dec.).
Take `COc1ccc(NS(=O)(=O)c2ccc(N3CCC(NCC(O)c4ccc(O)c(NS(C)(=O)=O)c4)CC3)cc2)cc1OC` (stereo not drawn) [Example 8, N-(3,4-Dimethoxy-phenyl)-4-{4-[2-hydroxy-2-(4-hydroxy-3-methanesulfonylamino-phenyl)-ethylamino]-piperidin-1-yl}-benzenesulfonamide]: the melting point fell in the range of 205 to 218 °C. Also, in series [1], the EC50 worked out at 16 nM and the “beta-3 (IA) maximal response relative to isoproterenol” value was “(0.91)”. In series [2], the EC50 amounted to 610 nM and the “beta-2 (IA) maximal response relative to isoproterenol” value is “(0.28)”. For the same compound, in series [3], the EC50 came to 3600 nM and the “beta-1 (IA) maximal response relative to isoproterenol” value is “(0.41)”.
`COc1ccc(NS(=O)(=O)c2ccc(N3CCC(NC[C@H](O)COc4ccc(OCc5ccccc5)cc4)CC3)cc2)cc1OC` [Example 9, 4-{4-[(2S)-3-(4-Benzyloxy-phenoxy)-2-hydroxy-propylamino]-piperidin-1-yl}-N-(3,4-dimethoxy-phenyl)-benzenesulfonamide] registered a melting point of 113 to 121 °C.
`COc1ccc(NS(=O)(=O)c2ccc(N3CCC(NC[C@H](O)COc4cccc5[nH]c6ccccc6c45)CC3)cc2)cc1OC` [Example 10, 4-{4-[(2S)-3-(9H-Carbazol-4-yloxy)-2-hydroxy-propylamino]-piperidin-1-yl}-N-(3,4-dimethoxy-phenyl)-benzenesulfonamide]: the melting point was in the range of 58 to 64 °C. For the same compound, in series [1], the EC50 was found to be 100 nM and the “beta-3 (IA) maximal response relative to isoproterenol” value is “(0.45)”.
In the same order, the values of `COc1ccc(NS(=O)(=O)c2ccc(N3CCC(NC[C@H](O)COc4ccc(O)cc4)CC3)cc2)cc1OC` [Example 11, N-(3,4-Dimethoxy-phenyl)-4-{4-[(2S)-2-hydroxy-3-(4-hydroxy-phenoxy)-propylamino]-piperidin-1-yl}-benzenesulfonamide] are 101 to 106 °C, 330 nM and “(0.83)”.
In the same order, the values of `CCCCNS(=O)(=O)c1ccc(N2CCC(NC[C@H](O)COc3cccc4[nH]c(=O)[nH]c34)CC2)cc1` [Example 12, N-Butyl-4-{4-[(2S)-2-hydroxy-3-(2-oxo-2,3-dihydro-1H-benzoimidazol-4-yloxy)-propylamino]-piperidin-1-yl}-benzenesulfonamide] are 69 to 75 °C, 10 nM and “(1)”.
As to `CCCCNS(=O)(=O)c1ccc(N2CCC(NC[C@H](O)COc3cccc4[nH]c5ccccc5c34)CC2)cc1` [Example 13, N-Butyl-4-{4-[(2S)-3-(9H-carbazol-4-yloxy)-2-hydroxy-propylamino]-piperidin-1-yl}-benzenesulfonamide], the melting point lay in the range of 166 to 179 °C. Also, in series [1], the EC50 is 50 nM and the “beta-3 (IA) maximal response relative to isoproterenol” value is given as “(0.7)”.
Compound `CCCCNS(=O)(=O)c1ccc(N2CCC(NC[C@H](O)c3ccc(O)c(NS(C)(=O)=O)c3)CC2)cc1` [Example 14, N-Butyl-4-{4-[(2R)-2-hydroxy-2-(4-hydroxy-3-methanesulfonylamino-phenyl)-ethylamino]-piperidin-1-yl}-benzenesulfonamide] displayed a melting point of 71 to 75 °C. Further, in series [1], the EC50 amounted to 1 nM and the “beta-3 (IA) maximal response relative to isoproterenol” value is given as “(1.3)”. In series [2], the EC50 is 170 nM and the “beta-2 (IA) maximal response relative to isoproterenol” value is “(0.53)”. In addition, in series [3], the EC50 was 640 nM and the “beta-1 (IA) maximal response relative to isoproterenol” value was “(1)”.
`CC(C)OC(=O)C1CCCN1S(=O)(=O)c1ccc(N2CCC(NCC(O)c3ccc(O)c(NS(C)(=O)=O)c3)CC2)cc1` (stereo not drawn) [Example 15, 1-(4-{4-[2-Hydroxy-2-(4-hydroxy-3-methanesulfonylamino-phenyl)-ethylamino]-piperidin-1-yl}-benzenesulfonyl)-pyrrolidine-2-carboxylic Acid Isopropyl Ester] registered a melting point of 52 to 58 °C. For the same compound, in series [1], the EC50 came to 1 nM and the “beta-3 (IA) maximal response relative to isoproterenol” value was “(1)”. For the same compound, in series [2], the EC50 is 160 nM and the “beta-2 (IA) maximal response relative to isoproterenol” value is reported as “(0.37)”. Further, in series [3], the EC50 turned out to be 13000 nM and the “beta-1 (IA) maximal response relative to isoproterenol” value is on record as “(0.23)”.
`CC(C)OC(=O)C1CCCN1S(=O)(=O)c1ccc(N2CCC(NCC(O)COc3cccc4[nH]c(=O)[nH]c34)CC2)cc1` (stereo not drawn) [Example 16, 1-(4-{4-[2-Hydroxy-3-(2-oxo-2,3-dihydro-1H-benzoimidazol-4-yloxy)-propylamino]-piperidin-1-yl}-benzenesulfonyl)-pyrrolidine-2-carboxylic Acid Isopropyl Ester] had a melting point of 74 to 83 °C. In series [1], the EC50 came out at 3 nM and the “beta-3 (IA) maximal response relative to isoproterenol” value was “(0.86)”.
In the same order, the values of `CNC(=O)C1CCCN1S(=O)(=O)c1ccc(N2CCC(NC[C@H](O)COc3cccc4[nH]c(=O)[nH]c34)CC2)cc1` (stereo partly drawn) [Example 17, 1-(4-{4-[(2S)-2-Hydroxy-3-(2-oxo-2,3-dihydro-1H-benzoimidazol-4-yloxy)-propylamino]-piperidin-1-yl}-benzenesulfonyl)-pyrrolidine-2-carboxylic Acid Methylamide] are 36 to 39 °C, 28 nM and “(0.81)”.
`CCCCN(CC(=O)OCc1ccccc1)S(=O)(=O)c1ccc(N2CCC(NC[C@H](O)c3ccc(O)c(NS(C)(=O)=O)c3)CC2)cc1` [Example 19, [Butyl-(4-{4-[(2R)-2-hydroxy-2-(4-hydroxy-3-methanesulfonylamino-phenyl)-ethylamino]-piperidin-1-yl}-benzenesulfonyl)-amino]-acetic Acid Benzyl Ester]: the melting point is 59 to 64 °C. Besides, in series [1], the EC50 turned out to be 7 nM and the “beta-3 (IA) maximal response relative to isoproterenol” value is listed as “(1)”. In addition, in series [2], the “beta-2 (IA) maximal response relative to isoproterenol” value is reported as “(0.2)”. Moreover, in series [3], the EC50 stood at 790 nM and the “beta-1 (IA) maximal response relative to isoproterenol” value is listed as “(0.54)”.
In the case of `Cc1ccc(S(=O)(=O)c2ccc(N3CCC(NC[C@H](O)COc4cccc5[nH]c(=O)[nH]c45)CC3)cc2)cc1` [Example 46, 4-((2S)-2-Hydroxy-3-{1-[4-(toluene-4-sulfonyl)-phenyl]-piperidin-4-ylamino}-propoxy)-1,3-dihydro-benzoimidazol-2-one], the melting point lay within 130 to 132 °C. In series [1], the EC50 came to 9 nM and the “beta-3 (IA) maximal response relative to isoproterenol” value is recorded as “(1.1)”.
`O=C1CN(S(=O)(=O)c2ccc(N3CCC(NC[C@H](O)COc4cccc5[nH]c(=O)[nH]c45)CC3)cc2)C(=O)N1` [Example 49, 1-(4-{4-[(2S)-2-Hydroxy-3-(2-oxo-2,3-dihydro-1H-benzoimidazol-4-yloxy)-propylamino]-piperidin-1-yl}-benzenesulfonyl)-imidazolidine-2,4-dione]: the melting point was 230 °C (dec.). Also, in series [1], the EC50 turned out to be 9 nM and the “beta-3 (IA) maximal response relative to isoproterenol” value was “(0.96)”.

(Values after US6444685B1, “N-(4-sulfonylaryl)Cyclylamine 2-hydroxyethylamines as beta-3 adrenergic receptor agonists” (Wyeth, priority 2000, dated 2002).)
